Measured values published in patent US6071966A, “1-amino-alkylcyclohexane NMDA receptor antagonists” (Merz + Co. GmbH & Co., priority 1998, dated 2000).
Where a name gives a salt, the structure may show the parent alone.

tested on: MES-induced convulsions in mice; assay: Anticonvulsive activity: maximal electroshock (MES) test; format: in vivo; conditions: Mus musculus, ip, 0.5 h, Table 8
Procedure: (§1) NMR female mice (18-28 g) housed 5 per cage were used for the maximal electroshock (MES) and motor impairment tests. […] All compounds were dissolved in 0.9% saline.
(§2) The MES test was performed together with tests for myorelaxant action (traction reflex) and motor coordination (rotarod). For the traction reflex test mice were placed with their forepaws on a horizontal rod and were required to place all 4 paws on the wire within 10 seconds. To test ataxia (motor coordination) mice were placed on rotarod (5 rpm) and were required to remain on the rod for 1 minute. […] These tests were followed by MES (100 Hz, 0.5 second shock duration, 50 mA shock intensity, 0.9 ms impulse duration, Ugo Basile) applied through corneal electrodes. The presence of tonic convulsions was scored (tonic extension of hind paws with minimum angle to the body of 90°). The aim was to obtain ED50 s for all parameters scored (anticonvulsive activity and motor side effects) with use of the Litchfield Wilcoxon test for quantal dose responses. Division of the ED50 for side effects (ataxia or myorelaxation) by the ED50 for antagonism of electroshock convulsions was used as a therapeutic index (TI).
(§3) Pearson product moment correlation analysis (Sigma Stat, Jandel Scientific) was used to compare in vitro potencies and in vivo anticonvulsant activity.

Compound | ED50 [mg/kg]
CCC[C@H]1CC(C)(C)C[C@@](C)(N)C1 (relative stereo) [Mrz 2/634] | > 30

same assay, conditions: Mus musculus, ip, 0.5 h, i.p. 30 min before, Table 7

Compound | ED50 [mg/kg]
CCC[C@H]1CC(C)(C)C[C@@](C)(N)C1 (relative stereo) [Mrz 2/634] | > 30
C[C@H]1CC(C)(C)C[C@@](C)(N)C1 (relative stereo) [Mrz 2/643] | 16.6

same assay, conditions: i.p., Table 8, 30 min

Compound | MES ED50 [mg/kg i.p.]
NC12CC3CC(CC(C3)C1)C2 [Amantadine, reference compound] | 184.0
C[C@]12N[C@H](Cc3ccccc31)c1ccccc12 [MK-801, (+)-5-methyl-10,11-dihydro-5H-dibenzocyclohepten-5,10-imine maleate, reference compound] | 0.16
CCCC1(N)CC(C)(C)CC(C)(C)C1 [Mrz 2/601, 1-amino-1-propyl-3,3,5,5-tetramethylcyclohexane] | 15.6
CN(C)C1(C)CC(C)(C)CC(C)(C)C1 [Mrz 2/642] | 8.04

tested on: not listed separately; assay: Rotarod test (motor coordination, ataxia); format: in vivo; conditions: mouse, in vivo, ip; mice, i.p.; Table 8; read-out: TI Rot. (ED50 rotarod failure / ED50 MES)
Procedure: All compounds were dissolved in 0.9% saline.
as §2, §3

Compound | selectivity ratio
CCCC1(N)CC(C)(C)CC(C)(C)C1 [Mrz 2/601, 1-amino-1-propyl-3,3,5,5-tetramethylcyclohexane] | 1.5
CN(C)C1(C)CC(C)(C)CC(C)(C)C1 [Mrz 2/642] | 5.3

same assay, conditions: mouse, rotarod versus mes, ip; mice, i.p.; Table 8; read-out: TI Rot. (ED50 rotarod failure / ED50 MES)

Compound | selectivity ratio
C[C@@H]1CC(C)(C)C[C@@](C)(N)C1 (relative stereo) [Mrz 2/607] | 1.7
CCC[C@@]1(C)C[C@H](C)C[C@@](C)(N)C1 (relative stereo) [Mrz 2/618] | 1.1
CCC[C@]1(C)C[C@@H](C)C[C@@](C)(N)C1 (relative stereo) [Mrz 2/619] | 1
CC[C@@]1(C)C[C@H](C)C[C@@](C)(N)C1 (relative stereo) [Mrz 2/622] | 1.7
CC[C@]1(C)C[C@@H](C)C[C@@](C)(N)C1 (relative stereo) [Mrz 2/624] | 1
C[C@@H]1CCC[C@@](C)(N)C1 (relative stereo) [Mrz 2/625] | 1.2
CCC[C@@H]1CCC[C@@](C)(N)C1 (relative stereo) [Mrz 2/627] | 1
CCC[C@H]1CCC[C@@](C)(N)C1 (relative stereo) [Mrz 2/628] | 1.6
CC[C@@H]1CCC[C@@](C)(N)C1 (relative stereo) [Mrz 2/629] | 0.9
CC[C@H]1CC(C)(C)C[C@@](C)(N)C1 (relative stereo) [Mrz 2/632] | 3.4
CC[C@@H]1CC(C)(C)C[C@@](C)(N)C1 (relative stereo) [Mrz 2/633] | 3
CCC[C@@H]1CC(C)(C)C[C@@](C)(N)C1 (relative stereo) [Mrz 2/635] | 1.4
C[C@@H]1C[C@H](C)C[C@](C)(N)C1 [MRZ 2/681, 1-amino-1(cis),3(cis),5-trimethylcyclohexane] | 5.3
CC1(C)CC(N)CC(C)(C)C1 [Mrz 2/557] | 1.4
CC1(C)CC(CN)CC(C)(C)C1.Cl [Mrz 2/580, 3,3,5,5-tetramethylcyclohexylmethylamine hydrochloride] | 1.3
CCC1(N)CC(C)(C)CC(C)(C)C1 [Mrz 2/600, 1-amino-1-ethyl-3,3,5,5-tetramethylcyclohexane] | 0.9
CCC1(C)CC(C)(C)CC(C)(N)C1 (centres unmarked) [Mrz 2/615, 1-amino-1,3,5,5-tetramethyl-3-ethylcyclohexane] | 3.2
CCC1(C)CCCC(C)(N)C1 (centres unmarked) [Mrz 2/620] | 1.1
CCC1(CC)CC(C)(C)CC(C)(N)C1 (centres unmarked) [Mrz 2/623, 1-amino-1,5,5-trimethyl-3,3-diethylcyclohexane] | 1.8
CCNC1(C)CC(C)(C)CC(C)(C)C1 [Mrz 2/639, N-ethyl-1-amino-1,3,3,5,5-pentamethylcyclohexane] | 4.4
CNC1(C)CC(C)(C)CC(C)(C)C1.Cl [Mrz 2/640, N,1,3,3,5,5-hexamethylcyclohexanamine hydrochloride] | 3.3
CC1(C)CC(CCN)CC(C)(C)C1 [Mrz 2/644] | 0.6
CC1(C)CC(C)(C)CC(C)(CCN)C1 [Mrz 2/662] | 1.2

molecular target: NMDA receptor; assay: [3H]-(+)-MK-801 receptor binding to rat cortical membranes; conditions: read-out: [3H]MK-801 IC50, [3H]-(+)-MK-801 5 nM, Table 7
Procedure: Male Sprague-Dawley rats (200-250 g) were decapitated and their brains were removed rapidly. The cortex was dissected and homogenized in 20 volumes of ice-cold 0.32 M sucrose using a glass-Teflon homogenizer. The homogenate was centrifuged at 1000×g for 10 minutes. The pellet was discarded and the supernatant centrifuged at 20,000×g for 20 minutes. The resulting pellet was re-suspended in 20 volumes of distilled water and centrifuged for 20 minutes at 8000×g. Then the supernatant and the buffy coat were centrifuged three times (48,000×g for 20 minutes) in the presence of 50 mM Tris-HCl, pH 8.0. All centrifugation steps were carried out at 4° C. After resuspension in 5 volumes of 50 mM Tris-HCl, pH 8.0 the membrane suspension was frozen rapidly at -80° C. On the day of assay the membranes were thawed and washed four times by resuspension in 50 mM Tris-HCl, pH 8.0 and centrifugation at 48,000×g for 20 minutes. The final pellet was suspended in assay buffer. The amount of protein in the final membrane preparation was determined according to the method of Lowry with some modifications. The final protein concentration used for our studies was between 250-500 μg/ml.
Membranes were re-suspended and incubated in 50 mM Tris-HCl, pH 8.0. […] Incubations were terminated using a Millipore filter system. The samples were rinsed three times with 2.5 ml ice cold assay buffer over glass fiber filters obtained from Schleicher & Schuell under a constant vacuum. Filtration was performed as rapidly as possible. Following separation and rinse, the filters were placed into scintillation liquid (5 ml; Ultima Gold) and radioactivity retained on the filters was determined with a conventional liquid scintillation counter (Hewlett Packard, Liquid Scintillation Analyser).
IC50 s in patch clamp, excitotoxicity, and binding studies were calculated according to the four parameter alogistic equation using the Grafit computer program (Erithacus Software, England). Ki value for binding studies were then determined according to Cheng and Prusoff. Binding values presented are means ±SEM of 3-5 determinations (each performed in duplicate).

Compound | IC50 [µM]
CC[C@@]1(C)C[C@H](C)C[C@@](C)(N)C1 (relative stereo) [Mrz 2/622] | 150
CC[C@H]1CCC[C@@](C)(N)C1 (relative stereo) [Mrz 2/630] | 443
CCC1(N)CC(C)(C)CC(C)(C)C1 [Mrz 2/600, 1-amino-1-ethyl-3,3,5,5-tetramethylcyclohexane] | 24

tested on: traction reflex in mice; assay: Traction reflex test (myorelaxant action); format: in vivo; conditions: i.p., Table 8
Procedure: as §1
as §2, with “(TI). […]” for “(TI).”

Compound | TI Tract. (ED50 traction reflex impairment / ED50 MES)
C[C@H]1CC(C)(C)C[C@@](C)(N)C1 (relative stereo) [Mrz 2/643] | 1.3
C[C@@H]1C[C@H](C)C[C@@](C)(N)C1 [MRZ 2/680, 1-amino-1(trans),3(trans),5-trimethylcyclohexane] | 0.7
C[C@@H]1C[C@H](C)C[C@](C)(N)C1 [MRZ 2/681, 1-amino-1(cis),3(cis),5-trimethylcyclohexane] | 2.1
CC[C@H]1CC(C)(C)C[C@](C)(N)C1 [MRZ 2/682, 1-amino-(1R,5S)trans-3-ethyl-1,5,5-trimethylcyclohexane] | 2.7
CC[C@H]1CC(C)(C)C[C@@](C)(N)C1 [MRZ 2/683, 1-amino-(1S,5S)cis-3-ethyl-1,5,5-trimethylcyclohexane] | 2.7
CC12CC3CC(C)(C1)CC(N)(C3)C2 [Memantine, reference compound] | 2.9
CCCC1(C)CC(C)(C)CC(C)(N)C1 (centres unmarked) [Mrz 2/614] | 1.9
CCCC1(C)CCCC(C)(N)C1 (centres unmarked) [Mrz 2/617] | 1.1
CCC1(C)CCCC(C)(N)C1 (centres unmarked) [Mrz 2/620] | 1.6
CCCC1(CCC)CC(C)(C)CC(C)(N)C1 (centres unmarked) [Mrz 2/626] | 1.1
CC(C)(N)CC1CC(C)(C)CC(C)(C)C1 [Mrz 2/645] | 0.6

tested on: not listed separately; assay: Traction reflex test (myorelaxant action); format: in vivo; conditions: mouse, traction reflex versus mes, ip; mice, i.p.; Table 8; read-out: TI Tract. (ED50 traction reflex impairment / ED50 MES)
Procedure: as §1
as §2, with “(TI). […]” for “(TI).”

Compound | selectivity ratio
C[C@@H]1CC(C)(C)C[C@@](C)(N)C1 (relative stereo) [Mrz 2/607] | 1.3
CCC[C@@]1(C)C[C@H](C)C[C@@](C)(N)C1 (relative stereo) [Mrz 2/618] | 1.2
CCC[C@]1(C)C[C@@H](C)C[C@@](C)(N)C1 (relative stereo) [Mrz 2/619] | 1
CC[C@@]1(C)C[C@H](C)C[C@@](C)(N)C1 (relative stereo) [Mrz 2/622] | 1.1
CC[C@]1(C)C[C@@H](C)C[C@@](C)(N)C1 (relative stereo) [Mrz 2/624] | 0.9
C[C@@H]1CCC[C@@](C)(N)C1 (relative stereo) [Mrz 2/625] | 0.5
CCC[C@@H]1CCC[C@@](C)(N)C1 (relative stereo) [Mrz 2/627] | 0.8
CCC[C@H]1CCC[C@@](C)(N)C1 (relative stereo) [Mrz 2/628] | 0.8
CC[C@@H]1CCC[C@@](C)(N)C1 (relative stereo) [Mrz 2/629] | 0.9
CC[C@H]1CC(C)(C)C[C@@](C)(N)C1 (relative stereo) [Mrz 2/632] | 2.7
CC[C@@H]1CC(C)(C)C[C@@](C)(N)C1 (relative stereo) [Mrz 2/633] | 2.4
CCC[C@@H]1CC(C)(C)C[C@@](C)(N)C1 (relative stereo) [Mrz 2/635] | 1.3
CC1(C)CC(N)CC(C)(C)C1 [Mrz 2/557] | 1
CC1(C)CC(CN)CC(C)(C)C1.Cl [Mrz 2/580, 3,3,5,5-tetramethylcyclohexylmethylamine hydrochloride] | 1.6
CCC1(N)CC(C)(C)CC(C)(C)C1 [Mrz 2/600, 1-amino-1-ethyl-3,3,5,5-tetramethylcyclohexane] | 0.6
CCCC1(N)CC(C)(C)CC(C)(C)C1 [Mrz 2/601, 1-amino-1-propyl-3,3,5,5-tetramethylcyclohexane] | 1.5
CCC1(C)CC(C)(C)CC(C)(N)C1 (centres unmarked) [Mrz 2/615, 1-amino-1,3,5,5-tetramethyl-3-ethylcyclohexane] | 2.5
CCC1(CC)CC(C)(C)CC(C)(N)C1 (centres unmarked) [Mrz 2/623, 1-amino-1,5,5-trimethyl-3,3-diethylcyclohexane] | 1.4
CCNC1(C)CC(C)(C)CC(C)(C)C1 [Mrz 2/639, N-ethyl-1-amino-1,3,3,5,5-pentamethylcyclohexane] | 2.6
CNC1(C)CC(C)(C)CC(C)(C)C1.Cl [Mrz 2/640, N,1,3,3,5,5-hexamethylcyclohexanamine hydrochloride] | 2.3
CN(C)C1(C)CC(C)(C)CC(C)(C)C1 [Mrz 2/642] | 4.1
CC1(C)CC(CCN)CC(C)(C)C1 [Mrz 2/644] | 0.5
CC1(C)CC(C)(C)CC(C)(CCN)C1 [Mrz 2/662] | 1

tested on: NMDA receptor; assay: not given; conditions: clinical / human use; cited from earlier work

Compound | side effects
NC12CC3CC(CC(C3)C1)C2 [Amantadine, reference compound] | rarely produce side effects at the therapeutic doses
C[C@]12N[C@H](Cc3ccccc31)c1ccccc12 [MK-801, (+)-5-methyl-10,11-dihydro-5H-dibenzocyclohepten-5,10-imine maleate, reference compound] | some psychotropic side effects were apparent at therapeutic doses
CC12CC3CC(C)(C1)CC(N)(C3)C2 [Memantine, reference compound] | rarely produce side effects at the therapeutic doses

tested on: not given; assay: not given; conditions: i.p.; Table 8

Compound | Min Lethality [mg/kg]
CC[C@H]1CCC[C@@](C)(N)C1 (relative stereo) [Mrz 2/630] | > 30
C[C@H]1CCC[C@@](C)(N)C1 (relative stereo) [Mrz 2/631] | > 30
CCC[C@H]1CC(C)(C)C[C@@](C)(N)C1 (relative stereo) [Mrz 2/634] | > 30
CC1(C)CC(CN)CC(C)(C)C1.Cl [Mrz 2/580, 3,3,5,5-tetramethylcyclohexylmethylamine hydrochloride] | 50
CCC1(N)CC(C)(C)CC(C)(C)C1 [Mrz 2/600, 1-amino-1-ethyl-3,3,5,5-tetramethylcyclohexane] | 50
CCCC1(N)CC(C)(C)CC(C)(C)C1 [Mrz 2/601, 1-amino-1-propyl-3,3,5,5-tetramethylcyclohexane] | 50
CCC1(C)CC(C)(C)CC(C)(N)C1 (centres unmarked) [Mrz 2/615, 1-amino-1,3,5,5-tetramethyl-3-ethylcyclohexane] | 50
CCC1(CC)CC(C)(C)CC(C)(N)C1 (centres unmarked) [Mrz 2/623, 1-amino-1,5,5-trimethyl-3,3-diethylcyclohexane] | > 30
CCNC1(C)CC(C)(C)CC(C)(C)C1 [Mrz 2/639, N-ethyl-1-amino-1,3,3,5,5-pentamethylcyclohexane] | 30
CNC1(C)CC(C)(C)CC(C)(C)C1.Cl [Mrz 2/640, N,1,3,3,5,5-hexamethylcyclohexanamine hydrochloride] | 108
CC1(N)CCCCC1 [Mrz 2/641] | > 50
